Molecular target: NA of A/Alabama/03/2020 A(H1N1)pdm09 (H275Y) (Influenza A virus, UniProt A0A0X9QTS2, H275Y)
Type: biochemical
Conditions: for IC50: read-out: Mean IC50 ± SD

Row | Substance | IC50 | IC50 fold-change
1 | oseltamivir carboxylate | 230 nM | 
2 | peramivir | 15.2 nM | 15.25 ± 2.11 (254) fold
